Where two headings read alike, the source gives them in different places.
What was measured:
[1] = test system: LPS (E. coli) induced fever in the rat; assay: LPS (E. coli) induced fever test in the rat (Test B), anti-pyretic activity; type: in vivo, rat (Sprague-Dawley); settings: for ED50: Escherichia coli, 2 h, read-out: ED50, Test B
Procedure: For this test male rats (Sprague-Dawley) of 130-180 g are fasted overnight. Body temperature is measured the following morning using a rectal probe connected to a telethermometer. […] Body temperature is measured 2 hours later and this value taken as the initial temperature. 6 hours after injection, the test animals receive an oral dosage of the test substance suspended in 0.5% tragacanth or tragacanth alone (control). Body temperature is again measured after a further 2 hours.

[2] = test system: established adjuvant arthritis in the rat; assay: Adjuvant arthritis test in the rat (Test A), anti-inflammatory activity; type: in vivo; settings: for ED50: read-out: ED50, Test A
Source text: For this test, adjuvant arthritis is induced according to the method of Pearson and Wood, "Arthr.

[3] = test system: arthritis pain in the rat; assay: Arthritis pain test in the rat (Test C), analgesic activity; type: in vivo, rat (OFA); settings: for ED50: read-out: ED50, Test C
Procedure: For this test male rats (OFA) of 110-120 g are treated with 0.1 ml of a Myobacterium smegmatis suspension in paraffin oil (0.6 mg Mycobact./0.1 ml oil) injected i.c. into the tail root. Market arthritis in the hind-paws develops ca. 12 days after treatment. 30 mins. before administration of test-substance, control measurement is performed by flexing the foot joint of the right or left hind-paw using a Statham transducer until volcalisation occurs. […] Test substance is administered orally and the flexion procedure repeated 1, 3 and 5 hours subsequently. The pressure at which vocalisation occurs is noted, the value recorded for each rat at each interval being the average value of three successive measurements. Animals in which the vocalisation threshold is doubled with respect to the control measurement are considered to be protected. The ED50 estimated for each post-treatment time according to the Probit method is taken as the dosage at which 50% of animals are protected. Active agents of the invention are active in this test at dosages of from 3.2 to 100 mg/kg.

[4] = fraction of commonly employed acetylsalicylic acid dosage

SMILES	ED50 ([1]; oral, rat, dosage at which increase in rectal temperature is 50% of control group) [mg/kg]	indicated daily dosage relative to acetylsalicylic acid, anti-pyretic therapy [1, 4]	ED50 ([2]; established adjuvant arthritis, rat) [mg/kg]	indicated daily dosage relative to acetylsalicylic acid, anti-inflammatory therapy [2, 4]	indicated daily dosage relative to acetylsalicylic acid, analgesic therapy [3, 4]	ED50 ([3]; oral, rat, dosage at which 50% of animals are protected (vocalisation threshold doubled), post-treatment time not stated) [mg/kg]	ED50 ([1]; po) [mg/kg]	ED50 ([2]; Rattus norvegicus) [mg/kg]	ED50 ([3]; Rattus norvegicus, po) [mg/kg]
COC1=Cc2ccccc2/C(=C\C(=O)O)c2cc(Cl)sc21 [Compound A, [2-chloro-10-methoxy-4H-benzo[4,5]-cyclohepta[1,2-b]thiophen-4-ylidene]acetic acid (E)-isomer]	14 ± 5	1/10	10 ± 2	1/24	1/5	18	–	–	–
CC(=O)Oc1ccccc1C(=O)O [Compound B, acetyl-salicylic acid, reference compound]	–	–	–	–	–	–	161	240	90

From patent publication US4775691A, “4H-benzo[4,5]cyclohepta[1,2-b]thiophene derivatives” (Sandoz Ltd., priority 1985, dated 1988)
